Literature values as cited in patent US20230149481A1, “COMBINATION THERAPY FOR INFLAMMATORY BOWEL DISEASE” (Servatus Ltd, priority 2020, published 2023).

Test system: DSS-induced colitis
Conditions: previous tests in the same DSS-induced colitis model, compared with the Group 5 treatment of Example 1

Row | Compound | in-life disease score
1 | C[C@]12C=CC(=O)C=C1CC[C@@H]1[C@@H]2[C@@H](O)C[C@@]2(C)[C@H]1CC[C@]2(O)C(=O)CO [prednisolone] | None of these drugs statistically improved the in-life disease score to the extent observed
2 | O=C(O)c1cc(/N=N/c2ccc(S(=O)(=O)Nc3ccccn3)cc2)ccc1O [sulfasalazine] | None of these drugs statistically improved the in-life disease score to the extent observed
